According to US20020146823A1, “Method for promoting hematopoietic and mesenchymal cell proliferation and differentiation” (The University of Southern California, priority 1997, published 2002):

What was measured:
[1] = test system: Murine Peritoneal Macrophages; assay: Phagocytic capability of murine peritoneal macrophages (opsonized yeast ingestion); assay type: cell-based, C57B1/6 mice
Experimental: Resident peritoneal macrophages have very little phagocytic activity. Exposure of macrophages to inflammatory or activating agents will increase this macrophage function. Resident peritoneal macrophages were harvested from C57B1/6 mice or Sprague Dawley rats and resuspended at a concentration of 1×10^6 cells/ml in phosphate buffered saline (PBS). Five separate 0.5 ml cell aliquots were placed on a glass coverslip in a 35 mm petri dish. Prior to incubation, either 0.5 ml of PBS, AII, or AII analogues or fragments at between 1-1000 ug/ml final concentration was added to the individual cover slips. The dishes containing the cover slips were then incubated at 37° C. for 4 hours, after which the cover slips were washed 3 to 6 times with PBS. Opsonized yeast particles (Sigma Chemical Co.) (yeast opsonized with adult serum from the same species as that under study) were added to the cover slips and incubated for 2 hours, after which the cover slips were again washed with PBS and inverted onto a glass slide. The number of macrophages that ingested yeast and the number of yeast per macrophage ingested was then determined microscopically. At least 100 macrophages per coverslip were counted. The data from this study are summarized in Tables 3 and 4 and FIGS. 1 and 2.

[2] = test system: murine peritoneal macrophages; assay: Respiratory burst (hydrogen peroxide generation) in murine peritoneal macrophages; assay type: cell-based; conditions: alone and in response to PMA; 4 hours exposure
Experimental: The respiratory burst of leukocytes (macrophages and polymorphonuclear neutrophils) is one component of the mediator system used to kill bacteria. As with phagocytosis, the level of this respiratory burst activity in resident macrophages is low. […] Studies were conducted to assess the effect of in vitro exposure of murine or rat peritoneal macrophages and human peripheral blood mononuclear cells (PBMC) to various concentrations of AII on the capacity to generate hydrogen peroxide via the respiratory burst system. For the human studies, five different donors were examined.
The murine or rat peritoneal cells were harvested by lavage with 5-15 ml of cold PBS with 0.5% bovine serum albumin. The human PBMC were harvested by venipuncture from normal human volunteers and isolated from peripheral blood by Ficoll Hypaque density centrifugation. After isolation, the cells were resuspended at 1×10^6 cells/ml and placed at 100 μl per well into 96 well plates. The cells were incubated with various concentrations of AII or AII analogues and fragments for 4 hours at 37° C. The cells were then preloaded with a fluorescent probe for hydrogen peroxide, 2,7 dichlorofluorescein acetate, which is nonfluorescent in the absence of hydrogen peroxide. […] One hour after stimulation the level of fluorescence produced was measured on a Cytofluor 2350 multiwell fluorometer.

rat bone marrow MSC = assay: Alkaline phosphatase expression by MSC in osteogenic medium; assay type: cell-based, Sprague Dawley rats; conditions: osteogenic medium 4 days
Experimental: Bone marrow from female Sprague Dawley rats were harvested by flushing the femur with medium. The cells were placed in culture dishes […], allowed to adhere overnight, and then placed in DMEM-LG medium containing antibiotics and 10% fetal calf serum together with varying concentrations of AII. At various times after culture initiation, the cells were washed with Tyrode's buffer and placed in osteogenic medium (DMEM-LG containing 10% fetal calf serum, 100 nM dexamethasone and 0.05 mM ascorbic acid) for 4 days prior to assessment of the level of alkaline phosphatase activity per well. Briefly, the wells were washed with Tyrode's buffer and 1 ml alkaline phosphatase substrate solution (50 mM glycine, pH 10.5, containing 1 mM magnesium chloride and 2.5 mM p-nitrophenyl phosphate) to each well. Fifteen minutes after addition of this aqueous substrate, the buffer was removed from the culture and mixed with 1 ml of 1N sodium hydroxide to stop the reaction. The absorbance of the resultant mixture at […] was then determined via spectroscopy. The level of alkaline phosphatase activity is expressed as the level of absorbance per culture dish.

## Asp-Arg-Val-Tyr-Ile-His-Pro-Phe (DRVYIHPF; printed: Asp-Arg-Val-Tyr-Ile-His-Pro-Phe) [AII, octapeptide present in humans and other species; known pressor agent, commercially available]
[1]; AII 10 μg/ml
  # Macrophages with Yeast, Yeast # 0: 100
  # Macrophages with Yeast, Yeast # 7-9: 0
[1]; AII 100 μg/ml
  # Macrophages with Yeast, Yeast # 0: 100
  # Macrophages with Yeast, Yeast # 7-9: 0
  % Ingesting: 16.7%
[1]; AII 1000 μg/ml
  # Macrophages with Yeast, Yeast # 0: 100
  # Macrophages with Yeast, Yeast # 7-9: 0
  % Ingesting: 25.6%
[1]; exposure to 10 μg/ml or greater
  phagocytic capability of peritoneal macrophages: tremendously increased
[1]; highest concentration
  % phagocytic: over 25%
  yeast observed per macrophage, on average: ~1
[1]; highest concentration vs resident population
  increase in the number of macrophages able to phagocytose: 25 fold
[2]
  ability of leukocytes to generate hydrogen peroxide: increased the ability of leukocytes to generate hydrogen peroxide both alone and in response to stimulation with PMA
Rat bone marrow MSC
  proliferation of cells that express alkaline phosphatase: can accelerate the proliferation of cells that express alkaline phosphatase
